According to patent US5296479A, “Treatment of psychosis using 1-cycloalkylpiperidines” (priority 1992, dated 1994):
Where a name gives a salt, the structure may show the parent alone.

How the values were obtained:
[1] = system: isolation-induced aggressive behavior; assay: Isolation-Induced Aggression in Mice; format: in vivo, Male Balb/c mice; details: oral, Table II discussion
Procedure: Male Balb/c mice (Charles River) were used. […] Isolated mice failing to consistently attack an intruder were eliminated from the colony. Drug testing was carried out by treating the isolated mice with test drugs or standards. Fifteen minutes after dosing with test drugs by the oral route, one isolated mouse was removed from its home cage and placed in the home cage of another isolate. Scoring was a yes or no response for each pair. A maximum of 3 minutes was allowed for an attack and the pair was separated immediately upon an attack. Selection of home cage and intruder mice was randomized for each test. Mice were treated and tested twice a week with at least a 2 day washout period between treatments.

[2] = system: PCP-induced turning behavior; assay: PCP-induced turning behavior in rats; format: in vivo, Male Sprague-Dawley rats; details: p.o., Table III discussion
Procedure: Male Sprague-Dawley rats (CD/CR, Charles River), weighing 190-290 g, were used for surgery. In order to spare […] neurons, rats were injected with 25 mg/kg imipramine i.p. 30 minutes before surgery. The rats were anesthetized with a 1:1.2 ratio mixture of Xylazine:Ketamine given 0.1 mL/100 g body weight i.m. A Ringers-Wydaze (100:0.01) solution was given to prevent dehydration. Dopamine was depleted in the right striatum by injecting the neurotoxin 6-hydroxydopamine (6-OHDA) into the substantia nigra of the right cerebral hemisphere. Five mg of 6-OHDA was dissolved in 5 mL of a 0.04% ascorbic acid solution which had been deoxygenated with nitrogen. Five μL of the 6-OHDA solution was injected into the substantia nigra through a 26 gauge needle over a five minute period. […]
Rotation rate and direction were determined with Coulbourn Instruments Rotometry Monitors. Clockwise and counter clockwise rotations were recorded at 30 and 60 minute intervals. […]
The data were analyzed with an analysis of variance statistical test and individual comparisons of each dose of test drug to control were made with Dunnett's multiple range test. The ED50 was calculated with a Litchfield and Wilcoxon test using percent of control values.

catalepsy = assay: Induction of catalepsy; format: in vivo, Male CD rats; details: rats, oral; Table III discussion
Procedure: Male CD rats (Charles River) weighing 250-300 g were treated with test drugs and standards by the oral route and tested for the presence of catalepsy 30 minute, 60 minute, and 90 minute after treatment. To test for catalepsy, each rat is placed with its front paws over a 10 cm high horizontal bar. The intensity of catalepsy is measured by the length of time it takes the animal to move both forelegs to the table. A time of 20 seconds is considered maximal catalepsy.

## Fc1ccc(OCC2CCN(CC3CC3)CC2)cc1 [Example 1, 1-(Cyclopropylmethyl)-4-(4-fluorophenoxymethyl)piperidine]
[1]
  inhibiting the isolation-induced aggressive behavior, in words: potent activities

## O=C(CC1CCN(CC2CC2)CC1)c1ccc(F)cc1 [Example 504, 1-(Cyclopropylmethyl)-4-2'-(4"-Fluorophenyl)-2-oxoethyl)-piperidine, hydrobromide salt]
[2]
  inhibiting PCP-induced turning behavior, in words: potent activity
catalepsy
  producing catalepsy, in words: does not produce catalepsy

## O=C(CCCN1CCC(O)(c2ccc(Cl)cc2)CC1)c1ccc(F)cc1 [Haloperidol]
[1]
  inhibiting the isolation-induced aggressive behavior, in words: potent activities
[2]
  inhibiting PCP-induced turning behavior, in words: potent activity
catalepsy
  producing catalepsy, in words: very potent in producing catalepsy
